This is an account of results in ChEMBL document CHEMBL3286107, “Synthesis of C,N'-linked bis-heterocycles using a deprotometalation-iodination-N-arylation sequence and evaluation of their antiproliferative activity in melanoma cells” (Bioorg Med Chem, 2014).

Each structure is given as a SMILES string. Calls of active or inactive are those of the source. The rule behind the calls is not given here.

Assay [1] has as its system A2058. As to the kind of experiment: Antiproliferative activity against human A2058 cells assessed as inhibition of cell growth after 72 hrs by MTT assay. The format is functional, cell-based. Conditions: A2058, 72 h.
Assay [2] relates to A2058. As to the kind of experiment: Growth inhibition of human A2058 cells at 10 uM after 72 hrs by MTT assay. Format: functional.

Consider `c1ccc2oc(-n3ccnc3)nc2c1`, for which the 50% inhibitory concentration (IC50) with A2058 [1] came out at 7.1 µM. The inhibition of growth at 10 µM in the assay with A2058 [2] (A2058, 72 h, read-out: GI) was determined as 84.3%.
Turning to `c1ccc2oc(-n3cnc4ccccc43)cc2c1`, in the assay on A2058 [2], the “growth inhibition (GI)” value was “Active”.
On to `c1ccc2sc(-n3cnc4ccccc43)nc2c1`, for which the “growth inhibition (GI)” value in the assay with A2058 [2] is “Active”.
As for `c1ccc2sc(-n3cnc4ccccc43)cc2c1`, the “growth inhibition (GI)” value with A2058 [2] is “Active”.
Still for that read-out and setting: for `c1ccc2oc(-n3cnc4ccccc43)nc2c1` the value was “Active”.

One may read the IC50 as the concentration at which inhibition is half-maximal.
